For 10 compounds, Dmax and DC50 results are on record in patent US12473294B2, “Selective modulators of mutant LRRK2 proteolysis and associated methods of use” (Arvinas Operations, Inc., priority 2020, dated 2025).

For one experiment, the target named is T1, G2019S LRRK2 (Homo sapiens, UniProt Q5S007, G2019S).
T1 construct: expressed in transfected cells; host or cells: HEK293 (ATCC CRL-1573)
In words: LRRK2 degradation HiBit assay, G2019S LRRK2 tagged with a HiBit tag expressed in HEK293 cells. The experiment is classed as cell-based. The note with it: 24 hours compound incubation; for Dmax: HEK293, HEK293 cells; for DC50: HEK293 cells. How it is done: The assay measures the degradation of wildtype and G2019S LRRK2 tagged with a HiBit tag on the C-terminus of the protein that was expressed from a mammalian expression vector, driven by the ubiquitin promoter in HEK293 cells. Each compound dose-response was repeated on three separate days, on three separate plates each day.
(§1) Plasmid Preparation. Transfection mixes were assembled as follows and incubated for 30 minutes at room temperature. In a 15 mL tube, 5.25 mL Opti-MEM (no additions) was mixed with 17 μL Firefly Luciferase plasmid at 1 μg/μL and 158 μL WT plasmid DNA at 1 μg/μL (175 μg total DNA) were mixed by flicking. In a new 15 mL tube, 5.25 mL OptiMEM was mixed with 17 μL Firefly Luciferase plasmid at 1 μg/μL and 158 μL G2019S plasmid DNA at 1 μg/μL (175 μg total DNA) were mixed by flicking. X-tremeGene HP was mixed thoroughly using a vortex. Next, 175 μL was added to each tube and flicked to mix. Both tubes were left to incubate for 30 minutes at room temperature.
While the transfection mixes were incubating, HEK293 cells acquired from ATCC (ATCC CRL-1573) were harvested with trypsin. Once cells are detached, the cells were resuspended in 12 mL OptiMEM+5% FBS and transferred to a 50 mL tube. The cells were mixed well and counted. Using OptiMEM+5% FBS, the cells were diluted in two 250 mL conical tubes at 0.71×10^6 cells/mL in 70 mL. One tube was labeled “WT” and the other “G2019S”. The WT and G2019S transfection mixes were added dropwise to the corresponding 250 mL tubes. The tubes were mixed first by pipetting then by swirling. The tubes were incubated at room temperature for at least 5 minutes.
(§2) Each tube was swirled before dispensing and after every three plates. Seventy microliters of cells were dispensed with WT or G2019S DNA to seven plates each. Three plates of each were tested with compound plate one (preparation described below) and three plates of each were tested with compound plate two (preparation described below). The first plate from each set served as a “prime” plate and was not used to test compounds. Each plate was incubated in the hood for 10 minutes before placing in the 37° C. incubator for 24 hours.
(§3) Preparation of Compound and Assay Plates. Two compound plates were made using 96 well polypropylene plates. Compounds were made up at 10 mM and were diluted to 1 mM in 30 μL. Each dose response curve included a well of DMSO, as a negative control and for normalization, and a well of 0.5 μM of Exemplary Compound 4 as a positive control. In addition to seven test compounds, each plate also included a dose response of Exemplary Compound 4. The compound plates were spun down along at 1200 rpm for 2 minutes.
(§4) The two compound plates were then mixed and 2 μL was diluted in intermediate plates having 248 μL of Opti-Mem in each well. Next, 10 μL diluted compounds from the intermediate plates were added to each test plate (three WT and three G2019S plates per compound plate for a total of 12 assay plates). The plates were incubated for 24 hours at 37° C.
(§5) All assay plates and all Nano-Glo Dual-Luciferase Reporter Assay System components (except for the DLR substrate) were equilibrated to room temperature. Next, the luciferase buffer was mixed with the lyophilized amber bottle until fully dissolved, and 75 μL of the luciferase mixture was added to each well of each assay plate. The assay plates were incubated for 10 minutes at room temperature with shaking for at least 5 minutes, and then read on a plate reader.
(§6) Developing Plates and Analyzing Data. One milliliter of DLR substrate and 1 mL LgBiT Protein were added to the Stop and Glo buffer, and 75 μL of the mixture was added to each well of each plate. Optically clear seals were added to each plate and each plate was incubated for 20 minutes with shaking for at least 10 minutes, and then read on a plate reader. […]
(With HiBiT, luminescence reflects the tagged protein that the partner subunit can reach.)

The next experiment concerns the target T2, wildtype LRRK2 (Homo sapiens, UniProt Q5S007).
T2 construct: endogenous in cells; host or cells: HEK293 with HiBit knocked in at the 3' end of the endogenous LRRK2 gene, stably expressing firefly luciferase
In words: LRRK2 degradation HiBit assay, wildtype LRRK2 tagged with a HiBit tag in HEK293 cells. It counts as cell-based. Conditions: 24 hours compound incubation; for Dmax: read-out: ** WT Dmax (%); for DC50: read-out: *WT DC50. As for the experimental part:
The assay measures the degradation of wildtype and G2019S LRRK2 tagged with a HiBit tag on the C-terminus of the protein that was expressed from a mammalian expression vector, driven by the ubiquitin promoter in HEK293 cells. Each compound dose-response was repeated on two separate days, on three separate plates each day.
as §1
While the transfection mixes were incubating, HEK293 cells (acquired from ATCC; ATCC CRL-1573) were harvested with trypsin. Once cells are detached, the cells were resuspended in 12 mL OptiMEM+5% FBS and transferred to a 50 mL tube. The cells were mixed well and counted. Using OptiMEM+5% FBS, the cells were diluted in two 250 mL conical tubes at 0.71×10^6 cells/mL in 70 mL. One tube was labeled “WT” and the other “G2019S”. The WT and G2019S transfection mixes were added dropwise to the corresponding 250 mL tubes. The tubes were mixed first by pipetting then by swirling. The tubes were incubated at room temperature for at least 5 minutes.
as §2, §3, §4, §5, §6

T1 sequence (Q5S007 whole entry G2019S): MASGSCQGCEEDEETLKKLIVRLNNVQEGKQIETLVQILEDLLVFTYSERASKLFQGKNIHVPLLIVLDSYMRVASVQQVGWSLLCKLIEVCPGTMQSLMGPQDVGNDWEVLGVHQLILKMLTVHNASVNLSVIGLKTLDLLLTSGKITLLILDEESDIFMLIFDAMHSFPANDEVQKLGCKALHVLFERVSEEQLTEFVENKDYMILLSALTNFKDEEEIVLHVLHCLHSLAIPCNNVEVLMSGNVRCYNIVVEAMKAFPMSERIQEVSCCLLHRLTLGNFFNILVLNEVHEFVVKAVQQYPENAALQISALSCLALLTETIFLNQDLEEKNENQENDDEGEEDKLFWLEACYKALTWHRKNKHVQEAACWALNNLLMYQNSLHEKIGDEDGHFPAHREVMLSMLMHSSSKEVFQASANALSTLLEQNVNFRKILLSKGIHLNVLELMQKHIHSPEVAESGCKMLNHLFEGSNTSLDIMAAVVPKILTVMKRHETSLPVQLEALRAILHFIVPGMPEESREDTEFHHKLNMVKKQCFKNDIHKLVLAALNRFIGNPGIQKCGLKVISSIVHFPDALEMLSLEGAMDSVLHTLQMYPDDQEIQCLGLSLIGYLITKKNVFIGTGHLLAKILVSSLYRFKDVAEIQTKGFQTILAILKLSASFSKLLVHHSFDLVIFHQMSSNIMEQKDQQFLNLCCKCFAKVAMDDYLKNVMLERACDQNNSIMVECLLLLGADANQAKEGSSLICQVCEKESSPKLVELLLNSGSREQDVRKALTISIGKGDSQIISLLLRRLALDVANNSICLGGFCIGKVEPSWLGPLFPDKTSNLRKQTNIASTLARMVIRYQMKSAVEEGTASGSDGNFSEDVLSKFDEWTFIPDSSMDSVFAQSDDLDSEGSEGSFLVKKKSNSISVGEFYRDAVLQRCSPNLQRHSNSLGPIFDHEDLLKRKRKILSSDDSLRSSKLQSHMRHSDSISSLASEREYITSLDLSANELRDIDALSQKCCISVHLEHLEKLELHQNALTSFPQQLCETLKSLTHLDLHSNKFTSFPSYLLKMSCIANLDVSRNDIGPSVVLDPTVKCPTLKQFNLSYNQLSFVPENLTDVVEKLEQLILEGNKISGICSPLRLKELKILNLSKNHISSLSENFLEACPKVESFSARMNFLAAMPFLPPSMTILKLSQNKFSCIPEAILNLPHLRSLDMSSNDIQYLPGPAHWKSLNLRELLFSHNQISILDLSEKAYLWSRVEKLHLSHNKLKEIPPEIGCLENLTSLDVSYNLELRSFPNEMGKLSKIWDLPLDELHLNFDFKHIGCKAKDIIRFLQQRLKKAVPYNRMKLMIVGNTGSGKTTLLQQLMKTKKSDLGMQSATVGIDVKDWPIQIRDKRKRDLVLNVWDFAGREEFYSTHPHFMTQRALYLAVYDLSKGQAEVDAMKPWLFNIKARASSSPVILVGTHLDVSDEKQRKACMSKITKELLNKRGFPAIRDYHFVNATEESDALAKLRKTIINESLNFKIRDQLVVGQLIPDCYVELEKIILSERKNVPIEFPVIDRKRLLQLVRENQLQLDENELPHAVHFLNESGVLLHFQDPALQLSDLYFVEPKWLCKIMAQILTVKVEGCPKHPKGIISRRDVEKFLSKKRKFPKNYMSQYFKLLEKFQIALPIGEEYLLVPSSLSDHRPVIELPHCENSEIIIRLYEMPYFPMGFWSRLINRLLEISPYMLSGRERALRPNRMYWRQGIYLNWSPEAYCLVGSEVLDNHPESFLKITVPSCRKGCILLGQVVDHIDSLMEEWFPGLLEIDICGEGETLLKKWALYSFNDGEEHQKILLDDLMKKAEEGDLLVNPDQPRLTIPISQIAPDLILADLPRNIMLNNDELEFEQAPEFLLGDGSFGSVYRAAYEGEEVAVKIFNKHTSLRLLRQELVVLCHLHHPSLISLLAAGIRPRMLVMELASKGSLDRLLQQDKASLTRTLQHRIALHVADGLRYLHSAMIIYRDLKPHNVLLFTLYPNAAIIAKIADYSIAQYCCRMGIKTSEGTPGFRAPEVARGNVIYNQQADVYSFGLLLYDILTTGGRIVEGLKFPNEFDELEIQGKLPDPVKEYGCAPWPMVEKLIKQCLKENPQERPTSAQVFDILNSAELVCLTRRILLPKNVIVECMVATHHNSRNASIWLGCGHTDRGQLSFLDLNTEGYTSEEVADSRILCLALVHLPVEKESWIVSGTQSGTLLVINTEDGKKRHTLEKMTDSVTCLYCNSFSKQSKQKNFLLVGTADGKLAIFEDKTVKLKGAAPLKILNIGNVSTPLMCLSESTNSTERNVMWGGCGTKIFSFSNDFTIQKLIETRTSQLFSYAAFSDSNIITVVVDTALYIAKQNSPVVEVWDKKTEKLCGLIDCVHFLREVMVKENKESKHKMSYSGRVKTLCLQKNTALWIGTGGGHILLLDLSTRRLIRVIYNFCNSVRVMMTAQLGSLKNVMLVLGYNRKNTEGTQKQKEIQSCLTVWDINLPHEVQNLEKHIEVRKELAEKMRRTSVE
T2 sequence (Q5S007 whole entry): as the sequence (Q5S007 whole entry G2019S) above, with S2019G counted along it

As for `CC1=C(C(=O)Nc2ccc3[nH]nc(-c4ccnc(N5CCN(CC6CCN(CC7CCN(c8ccc9c(c8)C(=O)N(C8CCC(=O)NC8=O)C9=O)CC7)CC6)[C@@H](C)C5)c4)c3c2)[C@@H](C)n2nnnc2N1C` (single isomer, unassigned) [compound 8], on G2019S LRRK2, the Dmax was in the range of 50 to 70% and the DC50 was less than 10 nM. For the same compound, at wildtype LRRK2, the greatest degradation seen (Dmax) lay within 50 to 70% and the 50% degradation concentration (DC50) was in the range of 10 to 50 nM.
Take `CC1=C(C(=O)Nc2ccc3[nH]nc(-c4ccnc(N5CCN(CC6CCN(CC7CCN(c8ccc9c(c8)C(=O)N(C8CCC(=O)NC8=O)C9=O)CC7)CC6)[C@@H](C)C5)c4)c3c2)[C@H](C)n2nnnc2N1C` (single isomer, unassigned) [compound 9]: on G2019S LRRK2, the greatest degradation seen (Dmax) fell in the range of 50 to 70% and the 50% degradation concentration (DC50) lay within 50 to 100 nM. For the same compound, on wildtype LRRK2, the Dmax was less than 50% and the DC50 is no less than 100 nM.
At G2019S LRRK2, `CC1=C(C(=O)Nc2ccc3[nH]nc(-c4ccnc(N5C[C@@H](C)N(CC6CCN(CC7CCN(c8ccc9c(c8)C(=O)N(C8CCC(=O)NC8=O)C9=O)CC7)CC6)[C@@H](C)C5)c4)c3c2)Cn2nnnc2N1C` (stereo partly drawn) [compound 1, N-(3-(2-((3S,5R)-4-((1-((1-(2-(2,6-dioxopiperidin-3-yl)-1,3-dioxoisoindolin-5-yl)piperidin-4-yl)methyl)piperidin-4-yl)methyl)-3,5-dimethylpiperazin-1-yl)pyridin-4-yl)-1H-indazol-5-yl)-4,5-dimethyl-4,7-dihydrotetrazolo[1,5-a]pyrimidine-6-carboxamide] yielded a Dmax of 50 to 70% and a DC50 of less than 10 nM. Besides, at wildtype LRRK2, the maximal degradation (Dmax) fell in the range of 50 to 70% and the DC50 is 10 to 50 nM.
On G2019S LRRK2, `CC1=C(C(=O)Nc2ccc3[nH]nc(-c4ccnc(N5C[C@@H](C)N(CC6CCN(CC7CCN(c8ccc9c(c8)C(=O)N(C8CCC(=O)NC8=O)C9=O)CC7)CC6)[C@@H](C)C5)c4)c3c2)C(C)n2nnnc2N1C` (stereo partly drawn) [compound 2, N-(3-(2-((3S,5R)-4-((1-((1-(2-(2,6-dioxopiperidin-3-yl)-1,3-dioxoisoindolin-5-yl)piperidin-4-yl)methyl)piperidin-4-yl)methyl)-3,5-dimethylpiperazin-1-yl)pyridin-4-yl)-1H-indazol-5-yl)-4,5,7-trimethyl-4,7-dihydrotetrazolo[1,5-a]pyrimidine-6-carboxamide] came in with a maximal degradation (Dmax) of 50 to 70% and a 50% degradation concentration (DC50) of less than 10 nM. Also, at wildtype LRRK2, the Dmax lay in the range of 50 to 70% and the 50% degradation concentration (DC50) is 10 to 50 nM.
For the compound `CC1=C(C(=O)Nc2ccc3[nH]nc(-c4ccnc(N5C[C@@H](C)N(CCOCCN6CCN(c7ccc8c(c7)C(=O)N(C7CCC(=O)NC7=O)C8=O)CC6)[C@@H](C)C5)c4)c3c2)Cn2nnnc2N1C` (stereo partly drawn) [compound 3, N-(3-(2-((3R,5S)-4-(2-(2-(4-(2-(2,6-dioxopiperidin-3-yl)-1,3-dioxoisoindolin-5-yl)piperazin-1-yl)ethoxy)ethyl)-3,5-dimethylpiperazin-1-yl)pyridin-4-yl)-1H-indazol-5-yl)-4,5-dimethyl-4,7-dihydrotetrazolo[1,5-a]pyrimidine-6-carboxamide], the 50% degradation concentration (DC50) on G2019S LRRK2 and at wildtype LRRK2 was no less than 100 nM throughout.
On to `CC1=C(C(=O)Nc2ccc3[nH]nc(-c4ccnc(N5C[C@@H](C)N(CCOCCOCCN6CCN(c7ccc8c(c7)C(=O)N(C7CCC(=O)NC7=O)C8=O)CC6)[C@@H](C)C5)c4)c3c2)Cn2nnnc2N1C` (stereo partly drawn) [compound 4, N-(3-(2-((3R,5S)-4-(2-(2-(2-(4-(2-(2,6-dioxopiperidin-3-yl)-1,3-dioxoisoindolin-5-yl)piperazin-1-yl)ethoxy)ethoxy)ethyl)-3,5-dimethylpiperazin-1-yl)pyridin-4-yl)-1H-indazol-5-yl)-4,5-dimethyl-4,7-dihydrotetrazolo[1,5-a]pyrimidine-6-carboxamide], for which the DC50 at G2019S LRRK2 and on wildtype LRRK2 was no less than 100 nM each time.
As to `CC1=C(C(=O)Nc2ccc3[nH]nc(-c4ccnc(N5C[C@@H](C)N(CCN6CCN(c7ccc8c(c7)C(=O)N(C7CCC(=O)NC7=O)C8=O)CC6)[C@@H](C)C5)c4)c3c2)Cn2nnnc2N1C` (stereo partly drawn) [compound 5, N-(3-(2-((3R,5S)-4-(2-(4-(2-(2,6-dioxopiperidin-3-yl)-1,3-dioxoisoindolin-5-yl)piperazin-1-yl)ethyl)-3,5-dimethylpiperazin-1-yl)pyridin-4-yl)-1H-indazol-5-yl)-4,5-dimethyl-4,7-dihydrotetrazolo[1,5-a]pyrimidine-6-carboxamide], on G2019S LRRK2, the Dmax was less than 50% and the half-maximal degradation concentration (DC50) was no less than 100 nM. Besides, the half-maximal degradation concentration (DC50) on wildtype LRRK2 was no less than 100 nM.
Take `CC1=C(C(=O)Nc2ccc3[nH]nc(-c4ccnc(N5C[C@@H](C)N(CC6CCN(CC7CCN(c8ccc9c(c8)C(=O)N(C8CCC(=O)NC8=O)C9=O)CC7)CC6)[C@@H](C)C5)c4)c3c2)C(C)(C)n2nnnc2N1C` (stereo partly drawn) [compound 6, N-(3-(2-((3S,5R)-4-((1-((1-(2-(2,6-dioxopiperidin-3-yl)-1,3-dioxoisoindolin-5-yl)piperidin-4-yl)methyl)piperidin-4-yl)methyl)-3,5-dimethylpiperazin-1-yl)pyridin-4-yl)-1H-indazol-5-yl)-4,5,7,7-tetramethyl-4,7-dihydrotetrazolo[1,5-a]pyrimidine-6-carboxamide]: on G2019S LRRK2, the Dmax was less than 50% and the DC50 was 10 to 50 nM. At wildtype LRRK2, the Dmax was less than 50% and the DC50 was no less than 100 nM.
With `CC1=C(C(=O)Nc2ccc3[nH]nc(-c4ccnc(N5CCN(CC6CCN(CC7CCN(c8ccc9c(c8)C(=O)N(C8CCC(=O)NC8=O)C9=O)CC7)CC6)[C@@H](C)C5)c4)c3c2)Cn2nnnc2N1C` (stereo partly drawn) [compound 10, N-(3-(2-((S)-4-((1-((1-(2-(2,6-dioxopiperidin-3-yl)-1,3-dioxoisoindolin-5-yl)piperidin-4-yl)methyl)piperidin-4-yl)methyl)-3-methylpiperazin-1-yl)pyridin-4-yl)-1H-indazol-5-yl)-4,5-dimethyl-4,7-dihydrotetrazolo[1,5-a]pyrimidine-6-carboxamide], on G2019S LRRK2, the greatest degradation seen (Dmax) fell in the range of 50 to 70% and the half-maximal degradation concentration (DC50) is less than 10 nM. In addition, on wildtype LRRK2, the maximal degradation (Dmax) is 50 to 70% and the DC50 was 10 to 50 nM.
Consider `CC1=C(C(=O)Nc2ccc3[nH]nc(-c4ccnc(N5CCN(CC6CCN(CC7CCN(c8ccc9c(c8)C(=O)N(C8CCC(=O)NC8=O)C9=O)CC7)CC6)CC5)c4)c3c2)[C@@H](C)n2nnnc2N1C` (stereo partly drawn) [compound 11, (7R)-N-(3-(2-(4-((1-((1-(2-(2,6-dioxopiperidin-3-yl)-1,3-dioxoisoindolin-5-yl)piperidin-4-yl)methyl)piperidin-4-yl)methyl)piperazin-1-yl)pyridin-4-yl)-1H-indazol-5-yl)-4,5,7-trimethyl-4,7-dihydrotetrazolo[1,5-a]pyrimidine-6-carboxamide], for which the maximal degradation (Dmax) on G2019S LRRK2 and at wildtype LRRK2 was less than 50% in each case. Besides, the half-maximal degradation concentration (DC50) was 10 to 50 nM on G2019S LRRK2 and 50 to 100 nM on wildtype LRRK2.

Usually Dmax stands for the largest share of the target that was removed. As usually defined, the DC50 is the concentration giving 50% degradation.
